From patent US20060258598A1, “Alpha-keto carbonyl calpain inhibitors” (priority 2003, published 2006) come the findings set out here.

Where only a bound is given, the exact number is not on record here.

In one test the target is T1, human μ-calpain (Homo sapiens, UniProt P07384).
T1 construct: purchased Calbiochem
T1 sequence (P07384 1-714): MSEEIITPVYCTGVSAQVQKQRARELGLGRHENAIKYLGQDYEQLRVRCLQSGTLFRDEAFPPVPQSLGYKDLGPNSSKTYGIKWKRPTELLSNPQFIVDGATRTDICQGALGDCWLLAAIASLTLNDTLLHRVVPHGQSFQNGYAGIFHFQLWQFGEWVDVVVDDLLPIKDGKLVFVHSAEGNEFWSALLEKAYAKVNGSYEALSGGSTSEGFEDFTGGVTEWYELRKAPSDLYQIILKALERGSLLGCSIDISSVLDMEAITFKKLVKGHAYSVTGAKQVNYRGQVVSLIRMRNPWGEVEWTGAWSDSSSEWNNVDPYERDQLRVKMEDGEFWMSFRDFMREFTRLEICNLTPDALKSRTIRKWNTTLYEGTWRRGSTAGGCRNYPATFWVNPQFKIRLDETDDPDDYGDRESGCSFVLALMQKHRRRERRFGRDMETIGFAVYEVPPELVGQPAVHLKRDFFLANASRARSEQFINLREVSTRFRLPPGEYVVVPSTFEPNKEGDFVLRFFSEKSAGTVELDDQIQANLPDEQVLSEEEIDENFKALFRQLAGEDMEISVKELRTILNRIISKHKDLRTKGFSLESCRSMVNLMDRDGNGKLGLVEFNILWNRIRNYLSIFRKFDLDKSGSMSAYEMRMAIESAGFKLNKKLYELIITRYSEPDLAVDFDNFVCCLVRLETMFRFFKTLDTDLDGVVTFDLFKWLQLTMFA
T1 sequence (P04632 1-268 partner): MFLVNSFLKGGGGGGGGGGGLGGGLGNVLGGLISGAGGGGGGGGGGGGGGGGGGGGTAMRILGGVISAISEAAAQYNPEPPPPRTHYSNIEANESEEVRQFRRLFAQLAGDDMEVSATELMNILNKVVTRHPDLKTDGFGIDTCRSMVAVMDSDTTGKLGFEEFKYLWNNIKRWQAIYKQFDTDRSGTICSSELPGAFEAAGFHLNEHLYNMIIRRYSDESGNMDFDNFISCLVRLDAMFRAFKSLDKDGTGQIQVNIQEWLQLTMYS
In words: Enzymatic calpain inhibition assay. It counts as biochemical. To be noted: substrate Suc-Leu-Tyr-AMC, read-out: Calp I IC50. Put shortly: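 Human μ-calpain (0.5 μg) with 250 μM Suc-Leu-Tyr-AMC in 100 mM imidazole pH 7.5, 5 mM cysteine, 5 mM CaCl2. AMC fluorescence (ex 360/em 440 nm) followed 30 min at 30 °C; IC50 determined graphically from initial velocities versus inhibitor concentration.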

Test [1] concerns cellular calpains in C2C12 myoblasts. In words: Calpain inhibition assay in C2C12 myoblasts. In kind it is cell-based. To be noted: 2 h incubation, calcium ionophore Br-A-23187, read-out: Calp I IC50 Myoblast. Put shortly:
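Confluent C2C12 myoblasts in fusion medium (DMEM, 5% horse serum) exposed to compound for 2 h at 37 °C, then loaded with 400 μM Suc-Leu-Tyr-AMC for 20 min at room temperature in buffer with 4 mM CaCl2, HEPES pH 7.25. Calpains activated by Br-A-23187 ionophore (20 μM in added buffer); AMC fluorescence read each minute for 60 min at 37 °C to derive IC50.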

The target of the next test is T2, 20S Proteasome (Oryctolagus cuniculus, UniProt G1T4Q9).
T2 sequence (G1T4Q9 1-263): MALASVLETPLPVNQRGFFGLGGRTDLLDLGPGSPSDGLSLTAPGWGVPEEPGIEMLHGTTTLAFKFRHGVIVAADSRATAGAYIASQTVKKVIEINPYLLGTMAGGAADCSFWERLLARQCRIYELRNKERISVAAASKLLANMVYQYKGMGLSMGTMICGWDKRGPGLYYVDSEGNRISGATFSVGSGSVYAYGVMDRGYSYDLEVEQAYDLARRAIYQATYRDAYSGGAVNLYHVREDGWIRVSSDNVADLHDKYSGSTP
In words: 20S Proteasome assay. It counts as biochemical, Rabbit. To be noted: substrate Suc-Leu-Leu-Val-Tyr-AMC; read-out: 20S Prot IC50. As for the experimental part: 25 μl of a reaction buffer containing 400 μM of the fluorogenic substrate Suc-Leu-Leu-Val-Tyr-AMC (Bachem) are dispensed per well of a white microtiter plate. Test compounds dissolved in 0.5 μl DMSO are added. To start the reaction; 25 μl of reaction buffer containing 35 ng of enzyme (20S Proteasome, Rabbit, Calbiochem) are added. The increase in fluorescence (excitation at 360 nm; emission at 440 nm) is measured over 30 min at 30° C. at 30″. The IC50's are then determined from the slopes.

Test [2] concerns Primary fibroblasts from donors with Friedreich Ataxia (FRDA). In words: BSO assay (cell viability under BSO-induced oxidative stress). In kind it is cell-based, human. To be noted: 24 h preincubation, 1 mM BSO; for EC50: Homo sapiens, Fibroblast. A digest of the protocol:
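FRDA patient primary fibroblasts were pretreated with compounds for 24 h, then exposed to 1 mM BSO (final) until toxicity appeared in BSO-only controls (typically 16–48 h). Viability was read by calcein AM (1.2 μM)/ethidium homodimer (4 μM) staining, 60 min RT, fluorescence 485/525 nm.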

As usually defined, the IC50 is the midpoint of a concentration-inhibition curve. The EC50 is the concentration at which the effect is half-maximal. A lower EC50 goes with an effect from little substance. Take `CCNC(=O)C(=O)[C@H](Cc1ccc(Cl)cc1)NC(=O)[C@@H](NC(=O)CCCCC1CCSS1)C(C)C` (stereo partly drawn) [Example 1]: the figures for the IC50 (at human μ-calpain; in test [1]; at 20S Proteasome) were 60 nM, 350 nM and 500 nM, respectively. This compound also gave a 50% effective concentration (EC50) in test [2] of 350 nM.
For `CCNC(=O)C(=O)[C@H](Cc1ccc(Cl)cc1)NC(=O)[C@@H](NC(=O)CCCCC1CCCS1)C(C)C` (stereo partly drawn) [Example 3], the IC50 on human μ-calpain was 100 nM; in test [1] it was 400 nM; at 20S Proteasome, 110 nM. The concentration for a half-maximal effect (EC50) in test [2] came out at 4000 nM.
For the compound `CCNC(=O)C(=O)[C@H](Cc1ccc(F)cc1)NC(=O)[C@H](CC(C)C)NC(=O)CCCCC1CCSS1` (stereo partly drawn) [Example 39], the IC50 at human μ-calpain amounted to 35 nM; in test [1] it was 3000 nM; at 20S Proteasome it was 800 nM. The “BSO EC50” value in test [2] is “inactive”.
On to `CCNC(=O)C(=O)[C@H](Cc1ccc(F)c(F)c1)NC(=O)[C@H](CC(C)C)NC(=O)CCCCC1CCSS1` (stereo partly drawn) [Example 47], for which the half-maximal inhibitory concentration (IC50) on human μ-calpain was found to be 40 nM; in test [1], 400 nM; at 20S Proteasome it was 450 nM.
`CCNC(=O)C(=O)[C@H](Cc1ccc(Br)cc1)NC(=O)[C@@H](NC(=O)CCCCC1CCSS1)C(C)C` (stereo partly drawn) [Example 53]: the figures for the IC50 (on human μ-calpain; in test [1]; on 20S Proteasome) were 60 nM, 200 nM and 180 nM, respectively. Besides, the EC50 in test [2] came out at 400 nM.
As to `CC(C)[C@H](NC(=O)CCCCC1CCSS1)C(=O)N[C@@H](Cc1ccc(Br)cc1)C(=O)C(=O)NC1CCCCC1` (stereo partly drawn) [Example 57], the IC50 at human μ-calpain was 75 nM; in test [1] it was 310 nM; on 20S Proteasome it was greater than 1000 nM. Also, the “BSO EC50” value in test [2] was “inactive”.
In the case of `CCNC(=O)C(=O)[C@H](Cc1ccc(Br)cc1)NC(=O)[C@H](CC(C)C)NC(=O)CCCCC1CCS[S+]1[O-]` (stereo partly drawn) [Example 65], the half-maximal inhibitory concentration (IC50) was found to be 15 nM at human μ-calpain, 1500 nM in test [1] and 400 nM at 20S Proteasome. In test [2], this compound showed an EC50 of 1000 nM.
On the same counts, the results for `CCNC(=O)C(=O)[C@H](Cc1ccc(OC)cc1)NC(=O)[C@@H](NC(=O)CCCCC1CCC[S+]1[O-])C(C)C` (stereo partly drawn) [Example 87] are 400 nM, 1200 nM, greater than 10000 nM and 9000 nM.
As to `CCNC(=O)C(=O)[C@H](Cc1ccc(OC)cc1)NC(=O)[C@H](CC(C)C)NC(=O)CCCCC1CCSS1` (stereo partly drawn) [Example 94], the IC50 at human μ-calpain turned out to be 15 nM; in test [1] it was 1000 nM; on 20S Proteasome it was 400 nM. In test [2], this compound had a concentration for a half-maximal effect (EC50) of 1500 nM.
Turning to `CCNC(=O)C(=O)[C@H](Cc1ccc(C)cc1)NC(=O)[C@@H](NC(=O)CCCCC1CCSS1)C(C)C` (stereo partly drawn) [Example 104], the IC50 is 70 nM on human μ-calpain, 350 nM in test [1] and 180 nM on 20S Proteasome. Further, it took 300 nM to reach a half-maximal effect in test [2] (EC50).
On the same counts, the results for `CCNC(=O)C(=O)[C@H](Cc1ccc(C)cc1)NC(=O)[C@H](CC(C)C)NC(=O)CCCCC1CCSS1` (stereo partly drawn) [Example 110] are 30 nM, 500 nM, 280 nM and 500 nM.
As to `CCNC(=O)C(=O)[C@H](Cc1ccc(C(F)(F)F)cc1)NC(=O)[C@H](CC(C)C)NC(=O)CCCCC1CCSS1` (stereo partly drawn) [Example 124], the values for the IC50 (on human μ-calpain; in test [1]; on 20S Proteasome) were 75 nM, 1100 nM and greater than 1000 nM, respectively. The compound further showed an EC50 in test [2] of 5000 nM.
On the same counts, the results for `Cc1ccc(S(=O)(=O)CNC(=O)C(=O)[C@H](Cc2ccccc2)NC(=O)[C@@H](NC(=O)CCCCC2CCSS2)C(C)C)cc1` (stereo partly drawn) [Example 140] are 150 nM, 450 nM, 80 nM and 500 nM.
`CCNC(=O)C(=O)[C@H](CC1CCCCC1)NC(=O)[C@H](CC(C)C)NC(=O)CCCCC1CCSS1` (stereo partly drawn) [Example 151]: the IC50 was 35 nM on human μ-calpain, 1800 nM in test [1] and greater than 100000 nM on 20S Proteasome.
Take `CCNC(=O)C(=O)[C@H](Cc1ccc(Br)cc1)NC(=O)[C@H](CC(C)C)NC(=O)CNC(=O)CCCCC1CCS[S+]1[O-]` (stereo partly drawn) [Example 187]: the concentration for half-maximal inhibition (IC50) was 15 nM on human μ-calpain and 7500 nM in test [1]. Moreover, a half-maximal effect in test [2] (EC50) was put at 20000 nM.
In the same order, the values of `CCNC(=O)C(=O)[C@H](Cc1ccc(OC)cc1)NC(=O)[C@@H](NC(=O)C1(NC(=O)CCCCC2CCSS2)CC1)C(C)C` (stereo partly drawn) [Example 192] are 370 nM, 3200 nM and 1500 nM.
On to `CCNC(=O)C(=O)[C@H](Cc1ccc(OC)cc1)NC(=O)[C@@H](NC(=O)C1(NC(=O)CCCCC2CCSS2)CCCCC1)C(C)C` (stereo partly drawn) [Example 195], for which the IC50 was 170 nM at human μ-calpain and 1500 nM in test [1]. Moreover, in test [2], the response was half-maximal at 5000 nM (EC50).
With `CCNC(=O)C(=O)[C@H](Cc1ccc(OC)cc1)NC(=O)[C@@H](NC(=O)c1ccc(NC(=O)CCCCC2CCSS2)cc1)C(C)C` (stereo partly drawn) [Example 196], the half-maximal inhibitory concentration (IC50) at human μ-calpain was greater than 1000 nM; in test [1], 400 nM. The compound further displayed an EC50 in test [2] of 2000 nM.
Turning to `CCNC(=O)C(=O)[C@H](Cc1ccc(OC)cc1)NC(=O)[C@@H](NC(=O)c1cccc(NC(=O)CCCCC2CCSS2)c1)C(C)C` (stereo partly drawn) [Example 197], the IC50 on human μ-calpain was 46 nM; in test [1] it was 250 nM; at 20S Proteasome it was 420 nM.
Regarding `CCNC(=O)C(=O)[C@H](Cc1ccc(OC)cc1)NC(=O)[C@@H](NC(=O)c1ccccc1NC(=O)CCCCC1CCSS1)C(C)C` (stereo partly drawn) [Example 198], the IC50 at human μ-calpain stood at 26 nM; in test [1], 1800 nM. This compound also showed an EC50 in test [2] of 8000 nM.
On the same counts, the results for `CCNC(=O)C(=O)[C@H](Cc1ccc(OC)cc1)NC(=O)[C@@H](NC(=O)c1ccccc1NC(=O)CCCCC1CCS[S+]1[O-])C(C)C` (stereo partly drawn) [Example 199] are 26 nM, 1200 nM and 4000 nM.
On the same counts, the results for `CCNC(=O)C(=O)[C@H](Cc1ccccc1)NC(=O)[C@@H](NC(=O)CNC(=O)CCCCC1CCSS1)C(C)C` (stereo partly drawn) [Example 207] are 47 nM, 8000 nM and 30000 nM.
Regarding `CC(C)[C@H](NC(=O)CNC(=O)CCCCC1CCSS1)C(=O)N[C@@H](Cc1ccccc1)C(=O)C(=O)NCc1ccccc1` (stereo partly drawn) [Example 209], the IC50 is 60 nM on human μ-calpain and 2500 nM in test [1]. The compound further registered an EC50 in test [2] greater than 100000 nM.
In the same order, the values of `CCNC(=O)C(=O)[C@H](Cc1ccccc1)NC(=O)[C@H](CC(C)C)NC(=O)CNC(=O)CCCCC1CCSS1` (stereo partly drawn) [Example 210] are 40 nM, 4500 nM and 10000 nM.
Take `CCNC(=O)C(=O)[C@H](Cc1ccccc1)NC(=O)[C@H](CC(C)C)NC(=O)CNC(=O)CCCCC1CCS[S+]1[O-]` (stereo partly drawn) [Example 211]: the IC50 on human μ-calpain is 25 nM; in test [1], 15000 nM. In addition, the EC50 in test [2] is 4000 nM.
